The test system of series [1] is subjects with steatosis and F1-F3 fibrosis / NASH. As to conditions: one subject on Compound 1 20 mg given 145 mg fenofibrate after grade 3 hypertriglyceridemia at week 1. How it is done: Ten subjects with steatosis (MRI-PDFF≥10%) and F1-F3 fibrosis (MRE≥2.88 kPa but non-cirrhotic based on FibroText <0.75, historical imaging and liver biopsy) were treated 20 mg Compound 1 for 12 weeks.
Four of the ten subjects were on fish oil or fenofibrate at baseline and continued the concomitant medication for the duration of the study. Throughout the study subjects were monitored for safety (adverse events, laboratory abnormalities), liver biochemistry, serum markers of fibrosis (ELF and its components TIMP-1, hyaluronic acid, PIII-NP) and cell death (CK18 M30 and M65), liver stiffness (MRE) and fat (MRI-PDFF) and the effect on de novo lipogensis was assessed using heavy water labeling.
The four subjects were analyzed in conjunction with eight subjects from the study described in Example 1. These twelve subjects were on fish oil or fibrates for at least six weeks of the study and included those who were on fish oil or fibrates at baseline or who had graded hypertriglyceridemia and were given fish oil or fibrates during the study.

The subject of series [2] is pro-fibrotic genes colla1 and timp1. The series is described as follows: Hepatic mRNA expression by qPCR, 15-day FFD mouse study. It counts as in vivo. As to conditions: Compound 2 5 mg/kg; fenofibrate 50 mg/kg; QD PO, 15 days. How it is done:
(§1) Purpose: The purpose of this study was to assess the effect of Compound 2 on plasma and liver triglycerides (TG) and molecular biology of liver after 15 days of oral administration (“PO”) of Compound 2 (5 mg/kg QD), fenofibrate (25 mg/kg and 50 mg/kg QD), or the combination (Compound 2 (5 mg/kg, QD)+fenofibrate (50 mg/kg, QD)) in mice fed a diet high in fat, cholesterol, and fructose (the fast-food diet, FFD (Research Diet D12079B)). Mice enrolled in this study were fed a FFD for approximately 9 months prior to study start. Primary endpoints were plasma TG, liver TG, liver ketone bodies, plasma liver enzymes, hepatic oxidative stress and hepatic gene expression of liver X receptorα (LXRα) and PPARα targets, and profibrotic markers by qPCR.
Background: Quantitative PCR measures a nucleic acid by following its amplification.

Series [3] has as its system fast food diet (FFD) male C57BL/6 mouse. The series is described as follows: 15-day once daily oral Compound 2 and fenofibrate, fast food diet model of fatty liver. Type of series: in vivo. Conditions: 15 days. How it is done:
Once Daily Oral Administration of Compound 2 and Fenofibrate: 15-Day Pharmacology Study Using the Fast Food Diet Model of Fatty Liver in the Male C57BL/6 Mouse
as §1

For series [4], the system named is fast food diet (FFD) male C57B1/6 mouse. The series is described as follows: 14-day pharmacology study of Compound 2 and fenofibrate in chow, fast food diet model of fatty liver. It counts as in vivo. As to conditions: Compound 2 10 mg/kg QD PO, two weeks of dosing. The procedure: Once Daily Compound 2 and Fenofibrate Administered in Chow: 14-Day Pharmacology Study Using the Fast Food Diet Model of Fatty Liver in the Male C57B1/6 Mouse
Purpose: The purpose of this study was to assess the effect of Compound 2 on plasma and liver TG and molecular biology of liver after 10 to 14 days of Compound 2 administered orally (10 mg/kg QD), or fenofibrate (0.1% administration in chow), or the combination in a mice fed a diet high in fat, cholesterol, and fructose (the fast-food diet, FFD). Mice enrolled in this study were fed a fast food diet for approximately 9 months prior to study start. Primary endpoints were plasma triglycerides, liver triglycerides, liver cholesterol, and hepatic gene expression of liver X receptorα (LXRα), and sterol response element binding protein-1c (SREBP1c) target genes by qPCR.

Take `CC(C)OC(=O)C(C)(C)Oc1ccc(C(=O)c2ccc(Cl)cc2)cc1` [fenofibrate, Fenofibrate, reference compound]: the “All monitored TG related measurements (total TG, APOB48, VLDL-P, APOC3)” value in series [1] was “improved to less than baseline”. Besides, the “Hepatic expression of pro-fibrotic genes” value in series [2] is “reduced”. In addition, the “Effect on the above-mentioned parameters (plasma TG, PPARα and LXRα target genes, ALT/AST, liver TG, βOHB, malondialdehyde)” value in series [3] (fenofibrate alone, both 25 and 50 mg/kg QD PO) was “modest-to-no effect”.

Regarding `COc1ccccc1[C@H](Cn1c(=O)n(C(C)(C)C(=O)O)c(=O)c2c(C)c(-c3ncco3)sc21)O[C@H]1CC[C@@H](O)CC1` [Compound 2, 2-[1-[(2R)-2-[(4-hydroxycyclohexyl)oxy]-2-(2-methoxyphenyl)ethyl]-5-methyl-6-(1,3-oxazol-2-yl)-2,4-dioxo-1H,2H,3H,4H-thieno[2,3-d]pyrimidin-3-yl]-2-methylpropanoic acid], the “Plasma triglycerides, increase relative to vehicle-treated animals” value in series [4] was found to be 15%. For the same compound, the “Plasma TG, increase relative to vehicle-treated animals” value in series [3] (Compound 2 5 mg/kg QD PO, 2 h post dose, ad lib fed) came out at 29%.

These data come from patent US11963961B2, “Combination therapy comprising an ACC inhibitor” (Gilead Sciences, Inc., priority 2017, dated 2024).
